Test results: article PMC10961359, “Targeting hexokinase 2 for oral cancer therapy: structure-based design and validation of lead compounds” (Frontiers in Pharmacology, 2024)
“Also recorded” adds a separate entry of the source. Where two headings read alike, the source gives them in different places.

What was measured:
Cal27 cells = assay: 2-NBDG glucose uptake assay (flow cytometry), Cal27; type: cell-based; conditions: Cal27, 10 μM and 30 μM, 72 h, vs DMSO control
Protocol: (§1) FaDu and Cal27 cells were treated with test compounds (0.2 million cells per treatment) and were incubated for 1 h with 100 μM of 2-NBDG (Invitrogen, N13195), in glucose free medium, washed with ice-cold PBS, and re-suspended in 500 μL of PBS and maintained on ice to perform flow cytometric analyses within 30 min. The mean fluorescent intensity (MFI) readout reflects the amount of fluorescent glucose analog taken up by the cells, providing insight into their glucose uptake capacity. The percent (%) cell population positive for glucose uptake (shown with a right shift of the histogram peaks) were also plotted for both the cell lines. For MMP analysis, cells were incubated with 200 nM of TMRE (Invitrogen, T669) for 30 min. For each measurement, data was collected for 10,000 events using a BD FACS Aria III (Becton Dickinson, San Jose, CA) instrument.
(§2) 2-[N-(7-Nitrobenz-2-oxa-1,3-diaxol-4-yl) amino]-2-deoxyglucose (2-NBDG) uptake into cells happens via glucose transporters and post uptake 2-NBDG gets phosphorylated by hexokinases. Since cancer cells represent higher glycolytic activity, the inhibition of HK2 activity in cancer cells is actively reflected in the inhibition of 2-NBDG uptake ([Hung et al., 2022]; [Li et al., 2022]). […] In this assay, the MFI of intracellular 2-NBDG serves as a quantitative measure of cellular glucose uptake. […] This finding is further supported by the increased % population of 2-NBDG positive cells in Cal27 cells compared to FaDu cells (Figure 3).

Cal27 oral cancer cells = assay: MTT antiproliferative assay, Cal27; type: cell-based; conditions: Homo sapiens, read-out: GI50 for Cal27
Protocol: (§3) FaDu cell line was cultured in RPMI-1640 medium containing L-glutamine (300 mg/L) and sodium bicarbonate (2 g/L), while Cal27, HEK293 and HFF-1 cell lines were cultured in DMEM medium containing glucose (4.5 g/L), L-glutamine (584 mg/L) and sodium bicarbonate (3.7 g/L). For gene expression and qPCR studies, RNA isolation was performed using Trizol (Thermo). The reagents and the primer sequences employed for the qPCR assays have been described previously ([Chakraborty et al., 2022]).
(§4) The hits derived from the docking study were sourced from either commercial suppliers or pre-existing compounds within our laboratory or were synthesized anew. The FaDu and Cal27 oral cancer cells were treated with the compounds for 72 h at concentrations of 3, 10, 30, and 100 μM. A post-treatment MTT assay was done to evaluate their antiproliferative activity. Table S2 represents the anti-proliferative and enzyme inhibitory activity of the compounds obtained as hits from the structure-based drug design strategy. […] Consequently, 50 μM of all the hit compounds were evaluated for their HK2 enzyme inhibitory activity. 50 μM of compounds were incubated with HK2 protein and the rate of reaction was assessed in kinetic mode (rate of conversion of NAD to NADH). The choice of 50 μM concentration was based primarily on MTT assays and GI50 calculation. The average GI50 values of the hit compounds against less sensitive FaDu cell line was approximately 50 μM. Considering this information, we reasoned that utilizing a concentration equivalent to the average GI50 would allow us to assess the maximum inhibitory effect of the compounds on HK2 enzyme activity. […] The same compounds have been previously reported by our team to have EGFR phosphorylation inhibitory potential and were coded as H2 (compound 14) and H10 (compound 11) ([Chakraborty et al., 2022]). […] Figures 1C,D show the lead compounds H2 and H10 at the active site of HK2 enzyme interacting via H-bonds with the amino acid residues.

FaDu oral cancer cells = assay: MTT antiproliferative assay, FaDu; type: cell-based; conditions: for GI50: Homo sapiens, FaDu, read-out: GI50 for FaDu
Protocol: as §3, §4

FaDu cells = assay: 2-NBDG glucose uptake assay (flow cytometry), FaDu; type: cell-based; conditions: 10 μM and 30 μM, 72 h, vs DMSO control
Protocol: as §1, §2

HK2 [1] = target: T1, HK2 (Homo sapiens, UniProt P52789); conditions: ref Liu and Liu, 2022; read-out: IC50 as reported against HK2; cited from earlier work
T1 construct: purchased Abcam ab211114
T1 sequence (P52789 1-917): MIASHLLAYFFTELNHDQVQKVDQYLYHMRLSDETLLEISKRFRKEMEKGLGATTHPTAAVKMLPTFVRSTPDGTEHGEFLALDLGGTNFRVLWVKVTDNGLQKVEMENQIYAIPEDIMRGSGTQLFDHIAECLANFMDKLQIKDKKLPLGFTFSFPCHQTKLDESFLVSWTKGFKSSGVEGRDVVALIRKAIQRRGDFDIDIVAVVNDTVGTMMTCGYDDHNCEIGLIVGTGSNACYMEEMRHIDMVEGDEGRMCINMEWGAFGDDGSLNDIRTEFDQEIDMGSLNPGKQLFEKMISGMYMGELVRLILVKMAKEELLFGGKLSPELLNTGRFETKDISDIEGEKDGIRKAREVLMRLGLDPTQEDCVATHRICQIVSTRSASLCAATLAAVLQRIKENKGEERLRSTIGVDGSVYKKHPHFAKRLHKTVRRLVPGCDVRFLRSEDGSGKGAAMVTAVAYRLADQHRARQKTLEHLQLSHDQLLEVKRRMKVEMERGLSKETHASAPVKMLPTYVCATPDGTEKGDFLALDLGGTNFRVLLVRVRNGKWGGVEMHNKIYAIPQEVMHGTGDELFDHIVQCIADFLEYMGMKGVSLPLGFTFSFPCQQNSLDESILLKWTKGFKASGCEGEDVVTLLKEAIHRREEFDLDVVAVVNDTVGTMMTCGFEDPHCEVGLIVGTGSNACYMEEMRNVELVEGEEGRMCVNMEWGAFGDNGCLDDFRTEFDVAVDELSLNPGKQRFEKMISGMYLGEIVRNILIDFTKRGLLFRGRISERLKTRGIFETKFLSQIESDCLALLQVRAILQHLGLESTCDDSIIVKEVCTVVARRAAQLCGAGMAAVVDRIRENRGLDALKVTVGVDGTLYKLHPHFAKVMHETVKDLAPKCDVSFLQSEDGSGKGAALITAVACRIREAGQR

HK2 [2] = target: T1, HK2; assay: HK2 enzyme inhibition assay (Abcam kit ab211114); type: biochemical; conditions: read-out: % inhibition of HK2 enzyme activity at 50 µM
Protocol: The HK2 enzyme inhibition assay was performed using an HK2 inhibitor assay kit (Abcam, ab211114) according to the manufacturer’s instructions. Initially, 50 µM compound concentration was used to perform the enzyme activity inhibition studies, after which IC50 of the top leads were determined.
as §4

| GI50 (Cal27 oral cancer cells; CAL-27, MTT, 72 h treatment, mean ± SEM) [µM] | GI50 (FaDu oral cancer cells; MTT, 72 h treatment, mean ± SEM) [µM] | Structure (SMILES) | 2-NBDG MFI (Cal27 cells) | GI50 for FaDu (FaDu oral cancer cells; MTT, 72 h treatment, mean ± SEM, listed as 2-DG) | 2-NBDG MFI (FaDu cells) | GI50 (Cal27 oral cancer cells; CAL-27, 72 h) [µM] | GI50 (FaDu oral cancer cells; 72 h) [µM] | IC50 (HK2 [1]) [µM] | inhibition at 50 µM (HK2 [2]) [%] |
| --- | --- | --- | --- | --- | --- | --- | --- | --- | --- |
| 77.6 | > 100 | O=CC[C@@H](O)[C@H](O)[C@H](O)CO [Compound 15, 2-Deoxy Glucose] | significant reduction | no efficacy; also recorded: limited efficacy | significant reduction | – | – | – | – |
| – | – | O=C(O)C(=O)CBr [Compound 1, 3-Bromo pyruvic acid] | significant reduction | – | significant reduction | 36.4 | 23.9 | < 5 | 88.2 |
